Assay [1] concerns 15 selected proteases (MPs and SPs); Thrombin, Factor Xa and human plasma as negative filters. Kind of assay: Cleavage of FRET-paired peptide substrates (free and PEG-coupled) by recombinant proteases. Type of assay: biochemical. The source says:
With an identified set of MPs and SPs, a panel of substrates was developed to measure their activity. A panel of 58 FRET-paired peptide substrates (labeled T1-58-Q, where Q denotes quenched Table 6) was screened for cleavage by the 15 selected proteases. To account for background cleavage in circulation, Thrombin, Factor Xa, and human plasma were included as negative filters. The library comprised peptides with diverse physiochemical properties to provide broad coverage, and kinetic parameters of cleavage of the FRET-paired substrates by recombinant proteases were measured and z-score normalized by protease. Substrates were grouped by hierarchical clustering to remove substrates with overlapping cleavage patterns, as they would not provide any orthogonal insight, resulting in a down-selected panel of 26 substrates.
For use in vivo, the peptides may be conjugated to a nanoparticle having robust accumulation in the prostate abilities. Thus, a biodistribution study was performed with three fluorophore-labeled carrier candidates and tested for their biodistribution following i.v. injection. […] Thus, the peptide substrates were conjugated to a PEG core and their cleavage profile was tested. […] Further mechanistic understanding of this variability may improve the development of ABN technology by identifying optimal surface presentation. […] Some substrates were cleaved specifically by a single protease on the biomarker list, whereas others were cleaved by multiple or all members of the enzyme family tested (Table 7).

The subject of assay [2] is MMP13, uPA, KLK, MMP. As to the kind of experiment: Substrate cleavage assay of protease nanosensors (FIG. 12A). Type of assay: biochemical. As to the method:
Xenograft model 22Rv1 (a non-metastatic tumor, referred to as Tnon-met) is derived from a primary tumor. […] PC3 (a metastatic tumor, referred to as Tmet) is undifferentiated, AR^−, PSA^−, and metastasizes to lymph node (LN), lung, and bone. Multiplexed sensors were selected to classify Tmet from Tnon-met (FIGS. 7A-7F). A substrate cleavage assay was performed (FIG. 12A) with several protease nanosensors (FIGS. 9A-9B and FIGS. 12A-12B).

Assay [3] deals with 22Rv1 cell line supernatant. Kind of assay: Cleavage of 19-plex fluorogenic ABNs in 22Rv1 supernatant. Type of assay: cell-based, human.
The subject of assay [4] is serine hydrolase. The arrangement: species or system human.
The subject of assay [5] is PC3 cell line supernatant. Kind of assay: Cleavage of 19-plex fluorogenic ABNs in PC3 supernatant. Type of assay: cell-based, human. The following applies: for overall cleavage activity in the presence of inhibitor: PC3 supernatant, 19-plex fluorogenic ABNs; for cleavage by PC3 supernatant compared with 22Rv1: in vitro, fluorogenic.
In assay [6] the test system is PC3 xenografts. As to the kind of experiment: Urinary reporter signal of ABNs in PC3 xenograft-bearing mice. Type of assay: in vivo. The following applies: for relative urine signal, PC3 compared with 22Rv1: 19-plex, mass-encoded reporters, xenografts ~100 mm3; for classification of PC3-bearing from 22Rv1-bearing mice: ROC curve analysis. As to the method:
Having achieved this proof-of-concept urine monitoring of protease activity with a single substrate, the entire ABN library was tested in vivo with an emphasis on identifying reporters to differentiate mice bearing more aggressive (PC3) versus less aggressive (22Rv1) xenografts. To quantify cleavage of the entire library in urine, the substrates were barcoded using a next generation of mass-encoded reporters built upon the isobar coded reporters method (Kwong et al., Nat Biotechnol 31:63-70 (2013)). This […] sensor library enables increased multiplexing by uniquely labeling each peptide with stable 13C and 15N atoms, allowing for quantitation of reporter barcodes across a large dynamic range using liquid chromatography-tandem mass spectrometry (Table 8). To account for variability in glomerular filtration rate, urine volume, and hydration state, a free reporter (not coupled to PEG) was co-injected. The 19-plex ABN library was serially injected i.v. to PC3 tumor-bearing mice over the course of tumor development. […] Next, the ability of the 19-plex library to classify PC3 from 22Rv1 tumor-bearing mice was sought to be determined. Using the mass-encoded reporters to examine the cleavage of each individual sensor, an early time point was focused on and it was observed that several substrates were differentially cleaved between animals bearing similarly sized xenografts ( 100 mm3) from the more (PC3) versus less aggressive (22Rv1) cell lines. Overall, the cleavage profile differences between the two cohorts agree with each cell line's protease expression patterns and the substrate specificity of each protease. […] To simplify urinalysis, these ABNs were designed to release biotinylated urinary reporters to enable ELISA-based readouts. […] Additionally, PSA measurements in mice may overestimate its sensitivity, as there is no mouse homolog of PSA (Lundwall et al., Biol Chem 387:243-249 (2006)). It was next tested whether the three-plex iRGD-ABNs could classify distinct prostate cancer tumors. […] Based on ROC curve analysis, the […] ABNs classified the mice bearing the more aggressive PC3-derived tumors as distinct from 22Rv1-bearing mice. […] Differential expression analysis was performed on TCGA data using […]. Survival analysis was performed using cBioPortal. SOMAscan was performed at the Beth Israel Deaconess Medical Center (BIDMC) Genomics Proteomics Core. […] Sigma) at 1 μM in PBS. • Animal Models. All animal studies were approved by Massachusetts Institute of Technology's Committee on Animal Care (CAC) (Protocol 0417-025-20). Four- to six-week-old male NCr nude mice (Taconic) were injected bilaterally with 3.5×10^6 PCa cells per flank in a 1:1 ratio of complete media and Matrigel (354234; Corning). Baseline urine measurement was obtained before xenograft implantation. Histology sectioning and staining was performed at KI Histology Core.

Assay [7] deals with tumor protease activity. As to the kind of experiment: In vivo protease activity imaging study. Further details: species or system mice. The following applies: red-shifted FRET pair.
The subject of assay [8] is MMP activity. As to the kind of experiment: FRET peptide substrate-cleavage assay in prostate tumor and NAT tissue samples. The assay is classed as biochemical. The following applies: human prostate tumor and matched NAT. Here is the method:
An assay was developed to measure protease activity in tissue samples. The mouse samples were excised, frozen in LN2, homogenized in PBS at 200 mgs/mL, and incubated with Q7 (FIG. 14A). In situ tissue zymography assays were additionally developed for frozen sections. Five sets of clinical human samples (both tumor and normal adjacent) were examined (FIG. 14B). The remaining fraction was tested on FRET substrates. Human sample cleavage was analyzed with substrate cleavage assays (Table 3). It was observed that many substrates are differentially cleaved in cancer tissue versus normal adjacent tissue.
As MP ABPs are less robust than serine ABPs, a FRET peptide substrate-cleavage assay was used to assay for MMP activity in the same tissue set evaluated by SOMAscan. Given the minimal tissue material available, each sample was evaluated with only a subset of substrates in duplicate. Multiple substrates were cleaved to a greater extent in tumor samples.

For assay [9], the system named is 22Rv1 xenografts. Kind of assay: Urinary reporter signal of ABNs in 22Rv1 xenograft-bearing mice. Type of assay: in vivo.
For assay [10], the system named is 22Rv1 xenograft tumor homogenates. As to the kind of experiment: Protease activity of tumor homogenates ex vivo. Type of assay: biochemical, mice.
[11] abbreviates: PEG-coupled quenched substrate, protease that cleaves it.

Entries after “also recorded” stand apart in the source; their conditions may differ. Non-standard residues stand in square brackets, D forms with d. Primed or numbered codes have the meaning given here. No end group written: not given here. *: point of attachment. 5FAM = O=C1OC2(c3ccc(O)cc3Oc3cc(O)ccc32)c2ccc(C(=O)*)cc21; Biotin = O=C1N[C@H]2[C@H](CS[C@H]2CCCCC(=O)*)N1; CPQ2 = quencher paired with 5FAM as FRET pair; PEG2′ = not defined here; PEG = not defined here; QSY21 = QSY21 quencher; Cy5 = Cy5 fluorophore

As to “PEG-T24-Q: quenched FRET peptide substrate T24 conjugated to PEG core (5FAM-GGLGPKGQTGK(CPQ2)[PEG2′]C; also: conjugated to PEG core, attachment not given here)”, the Top hit entry in assay [1] (setting [11]) was “MMP13”.

With “PEG-T39-Q: quenched FRET peptide substrate T39 conjugated to PEG core (5FAM-GGGSGRSANAKGK(CPQ2)[PEG2′]GC; also: conjugated to PEG core, attachment not given here)”, the Top hit result in assay [1] (setting [11]) is “uPA”.

Consider “PB2: protease nanosensor, uPA substrate, SEQ ID NO: 8 (Biotin-EGVNDNEEGFFSARKGGGSGRSANAKGC(PEG); reading uncertain; also: FAM label at residues 15-16, exact place not given here)”, for which, in [2], the “substrate specificity of nanosensor” value is “uPA substrate”.

In the case of `NCCc1ccc(S(=O)(=O)F)cc1` [AEBSF], the “overall cleavage activity in the presence of inhibitor” value in assay [3] and in assay [5] was “reduced” each time. The “effect of inhibitor on FP-TAMRA labeling” value in [4] is “mitigated”.

With “T39: uPA peptide substrate (GGGSGRSANAKG) of ABN library, reporter R3_09 (also: reporter R3_09 attached) [Substrate T39]”, the “protease that cleaves the substrate in vitro” value in assay [1] was “uPA”. Also, the “relative urine signal, PC3 compared with 22Rv1” value in assay [6] is “higher relative urine signal change; also recorded: elevated”. Moreover, in assay [6] (three-plex iRGD-ABNs), the “cleavage (individual reporter readout), PC3 relative to 22Rv1” value is reported as “significantly greater cleavage” and the “classification of PC3-bearing from 22Rv1-bearing mice” value (from here on “classification of PC3-bearing”) is listed as “classified”. For the same molecule, in assay [5], the “cleavage by PC3 supernatant compared with 22Rv1” value is reported as “cleaved differentially”.

Take “(QSY21)-GGPLGVRGKK(Cy5)-(PEG2)-C (QSY21-GGPLGVRGKK(Cy5)[PEG2′]C) [red-shifted FRET paired T7 substrate]”: the “fluorescence signal, tumor compared with liver” value in assay [7] is recorded as “greater fluorescence signal in the tumor compared with the liver”.

Turning to “PB13: protease nanosensor, broadly cleaved KLK substrate, SEQ ID NO: 9 (Biotin-EGVNDNEEGFFSARKGSGSKIIGGGC(PEG); reading uncertain; also: TAMRA at positions 15-16)”, the “substrate specificity of nanosensor” value in assay [2] was “broadly cleaved KLK substrate”.

Regarding “PEG-T7-Q: quenched FRET peptide substrate T7 conjugated to PEG core (5FAM-GGPLGVRGKK(CPQ2)[PEG2′]C; also: conjugated to PEG core, attachment not given here)”, in assay [1] (setting [11]), the Second hit entry is “MMP26” and the Top hit entry was “MMP9”.

For “T7: MMP-sensing peptide substrate (GPLGVRGK) of ABN library, reporter R3_04 (also: reporter R3_04 attached) [Substrate T7]”, the “cleavage signal, tumor vs NAT samples” value in assay [8] was “signal was elevated across the majority of tumor samples”. Further, the urine signal entry in assay [9] (19-plex library, 22Rv1 mice) is given as “gave rise to urine signals”; in assay [6] (19-plex library, PC3 mice) it was “gave rise to urine signals”. Moreover, the urinary signal result in [9] (single sensor, biotinylated reporter, 22Rv1 xenograft-bearing mice) was “increased urinary signal”. Further, the “urine signal relative to control animals” value in [9] (three-plex iRGD-ABNs, individual reporter, 22Rv1-bearing) is recorded as “elevated relative to control animals”; in assay [6] (three-plex iRGD-ABNs, individual reporter, PC3-bearing), “elevated relative to control animals”. Moreover, in assay [6] (three-plex iRGD-ABNs), the “classification of PC3-bearing” value is “did not classify between the two cohorts”.

“T24: MMP13 peptide substrate (GGLGPKGQTG) of ABN library, reporter R3_06 (also: reporter R3_06 attached) [Substrate T24]”: the “protease that cleaves the substrate in vitro” value in assay [1] is “MMP13”. Besides, the “relative urine signal, PC3 compared with 22Rv1” value in assay [6] is given as “higher relative urine signal change; also recorded: elevated”. Besides, in [6] (three-plex iRGD-ABNs), the “cleavage (individual reporter readout), PC3 relative to 22Rv1” value is “significantly greater cleavage” and the “classification of PC3-bearing” value is reported as “classified”. Further, the “cleavage by PC3 supernatant compared with 22Rv1” value in [5] is recorded as “cleaved differentially”.

As for `CNC(=O)[C@@H](NC(=O)[C@H](CC(C)C)[C@H](O)C(=O)NO)C(C)(C)C` [marimastat], the “overall cleavage activity in the presence of inhibitor” value in assay [3] and in assay [5] was “reduced” throughout. In addition, the “T7 sensor cleavage in the presence of inhibitor” value in assay [10] was “diminished”.

The values are drawn from US20200249194A9, “PROSTATE PROTEASE NANOSENSORS AND USES THEREOF” (Massachusetts Institute of Technology, priority 2017, published 2020).
